pEC50, pKi: −log10 of the molar value.
Legend:
[1] = target: T1, 5-hydroxytryptamine receptor 2A (Rattus norvegicus, UniProt P14842); assay: Displacement of [3H]DOB from 5HT2A in Sprague-Dawley rat cortex membranes measured after 15 mins by scintillation counting method; type: cell membranes
[2] = target: 5-hydroxytryptamine receptor 2A (Homo sapiens, UniProt P28223); assay: Displacement of [125I]DOI from recombinant human 5HT2A expressed in Syrian hamster AV12 cell membranes
[3] = target: T1, 5-hydroxytryptamine receptor 2A; assay: Displacement of [3H]ketanserin from 5HT2A in Sprague-Dawley rat frontal cortex membranes measured after 15 mins by scintillation counting method; set-up: species or system Membrane
[4] = target: Sodium-dependent dopamine transporter (Rattus norvegicus, UniProt P23977); assay: Activity at DAT in rat synaptosomes assessed as release of [3H]DA after 5 mins by liquid scintillation counting method; type: subcellular
Rattus norvegicus [5] = species on record: Rattus norvegicus; assay: Induction of stimulus generalization in rat trained to discriminate PMMA assessed as appropriate responding level to training drug by two lever method; type: functional; conditions: for ED50: Rattus norvegicus
[6] = Activity at NET in rat synaptosomes assessed as release of [3H]NE after 30 mins by liquid scintillation counting method; type: subcellular
[7] = target: Sodium-dependent serotonin transporter (Rattus norvegicus, UniProt P31652); assay: Activity at SERT in rat synaptosomes assessed as release of [3H]HT after 5 mins by liquid scintillation counting method; type: subcellular
Rattus norvegicus [8] = species on record: Rattus norvegicus; assay: Induction of stimulus generalization in Sprague-Dawley rat trained to discriminate rac-cathinone assessed as appropriate responding level to training drug by two lever method; type: functional
Rattus norvegicus [9] = species on record: Rattus norvegicus; assay: Induction of stimulus generalization in rat trained to discriminate (+)amphetamine assessed as appropriate responding level to training drug by two lever method; type: functional
Rattus norvegicus [10] = species on record: Rattus norvegicus; assay: Induction of stimulus generalization in Sprague-Dawley rat trained to discriminate MDMA assessed as appropriate responding level to training drug by two lever method; type: functional
Rattus norvegicus [11] = species on record: Rattus norvegicus; assay: Induction of stimulus generalization in Sprague-Dawley rat trained to discriminate S(-)MCAT assessed as appropriate responding level to training drug by two lever method; type: functional
Rattus norvegicus [12] = species on record: Rattus norvegicus; assay: Induction of stimulus generalization in Sprague-Dawley rat trained to discriminate alpha-ET assessed as appropriate responding level to training drug by two lever method; type: functional
Rattus norvegicus [13] = species on record: Rattus norvegicus; assay: Induction of stimulus generalization in Sprague-Dawley rat trained to discriminate AMPH assessed as appropriate responding level to training drug by two lever method; type: functional; conditions: Rattus norvegicus, Sprague-Dawley
Rattus norvegicus [14] = species on record: Rattus norvegicus; assay: Induction of stimulus generalization in rat trained to discriminate S(+)methamphetamine assessed as appropriate responding level to training drug by two lever method; type: functional
Rattus norvegicus [15] = species on record: Rattus norvegicus; assay: Induction of stimulus generalization in Sprague-Dawley rat trained to discriminate S(+)AMPH assessed as appropriate responding level to training drug by two lever method; type: functional
[16] = Displacement of [3H]DTG from sigma receptor (unknown origin); set-up: species or system Homo sapiens
Rattus norvegicus [17] = species on record: Rattus norvegicus; assay: Induction of stimulus generalization in rat trained to discriminate MDMA assessed as appropriate responding level to training drug by two lever method; type: functional
Rattus norvegicus [18] = species on record: Rattus norvegicus; assay: Induction of stimulus generalization in rat trained to discriminate (-)ephedrine assessed as appropriate responding level to training drug by two lever method; type: functional
[19] = target: Sodium-dependent serotonin transporter (Homo sapiens, UniProt P31645); assay: Activity at SERT (unknown origin) assessed as release of [3H]HT
Homo sapiens = species on record: Homo sapiens; assay: Selectivity ratio of EC50 for SERT (unknown origin) assessed as release of [3H]HT to EC50 for DAT (unknown origin) by [3H]DA release assay
[20] = target: Sodium-dependent dopamine transporter (Homo sapiens, UniProt Q01959); assay: Activity at DAT (unknown origin) assessed as release of [3H]DA
[21] = target: Sigma non-opioid intracellular receptor 1 (Cavia porcellus, UniProt Q60492); assay: Displacement of (+)-[3H]pentazocine from guinea pig brain membrane sigma1 receptor by scintillation spectrometric method
Rattus norvegicus [22] = species on record: Rattus norvegicus; assay: Induction of stimulus generalization in Sprague-Dawley rat trained to discriminate DOM assessed as appropriate responding level to training drug by two lever method; type: functional
Rattus norvegicus [23] = species on record: Rattus norvegicus; assay: Induction of stimulus generalization in Sprague-Dawley rat trained to discriminate PMMA assessed as appropriate responding level to training drug by two lever method; type: functional
Mus musculus = assay: Anxiolytic-like activity in iv dosed ICR mouse assessed as increase in marbles left uncovered measured after 30 mins by marble burying assay; type: functional; conditions: 0.5 h
Rattus norvegicus [24] = species on record: Rattus norvegicus; assay: Induction of stimulus generalization in rat trained to discriminate DOM assessed as appropriate responding level to training drug by two lever method; type: functional
[25] = Displacement of [3H]ketanserin from rat brain 5HT2 receptor
Rattus norvegicus [26] = assay: In vivo agonist activity at 5HT2A in ip dosed DOM-trained Sprague-Dawley rat assessed as increase in discriminative stimulus pretreated before testing; type: functional
Rhesus monkey = assay: In vivo agonist activity at 5HT2A in DOM-trained rhesus monkey assessed as increase in discriminative stimulus administered subcutaneously pretreated before testing; type: functional; conditions: Macaca mulatta, sc
[27] = target: T2, 5-hydroxytryptamine receptor 1A (Rattus norvegicus, UniProt P19327); assay: Displacement of [3H]-8-OH-DPAT from 5-HT1A receptor in Sprague-Dawley rat cortex membranes after 15 mins by liquid scintillation spectrometric method; type: cell membranes
T2 sequence (P19327 whole entry): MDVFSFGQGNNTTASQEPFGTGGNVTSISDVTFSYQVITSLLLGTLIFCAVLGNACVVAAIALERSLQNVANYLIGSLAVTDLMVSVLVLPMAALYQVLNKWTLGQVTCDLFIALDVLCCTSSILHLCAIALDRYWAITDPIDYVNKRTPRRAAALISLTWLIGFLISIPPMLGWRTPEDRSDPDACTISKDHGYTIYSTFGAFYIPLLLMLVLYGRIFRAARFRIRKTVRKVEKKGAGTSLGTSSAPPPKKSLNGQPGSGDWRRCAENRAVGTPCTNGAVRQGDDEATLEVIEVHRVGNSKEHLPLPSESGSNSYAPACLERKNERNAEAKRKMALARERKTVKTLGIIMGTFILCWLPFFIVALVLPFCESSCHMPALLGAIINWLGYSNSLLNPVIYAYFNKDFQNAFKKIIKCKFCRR

[28] = target: T1, 5-hydroxytryptamine receptor 2A; assay: Displacement of [125I](+/-)DOI from rat 5HT2A after 1 hr by beta scintillation counting method
[29] = Rattus norvegicus, Sprague-Dawley

Sodium-dependent dopamine transporter (Rattus norvegicus, UniProt P23977), sequence (P23977 whole entry): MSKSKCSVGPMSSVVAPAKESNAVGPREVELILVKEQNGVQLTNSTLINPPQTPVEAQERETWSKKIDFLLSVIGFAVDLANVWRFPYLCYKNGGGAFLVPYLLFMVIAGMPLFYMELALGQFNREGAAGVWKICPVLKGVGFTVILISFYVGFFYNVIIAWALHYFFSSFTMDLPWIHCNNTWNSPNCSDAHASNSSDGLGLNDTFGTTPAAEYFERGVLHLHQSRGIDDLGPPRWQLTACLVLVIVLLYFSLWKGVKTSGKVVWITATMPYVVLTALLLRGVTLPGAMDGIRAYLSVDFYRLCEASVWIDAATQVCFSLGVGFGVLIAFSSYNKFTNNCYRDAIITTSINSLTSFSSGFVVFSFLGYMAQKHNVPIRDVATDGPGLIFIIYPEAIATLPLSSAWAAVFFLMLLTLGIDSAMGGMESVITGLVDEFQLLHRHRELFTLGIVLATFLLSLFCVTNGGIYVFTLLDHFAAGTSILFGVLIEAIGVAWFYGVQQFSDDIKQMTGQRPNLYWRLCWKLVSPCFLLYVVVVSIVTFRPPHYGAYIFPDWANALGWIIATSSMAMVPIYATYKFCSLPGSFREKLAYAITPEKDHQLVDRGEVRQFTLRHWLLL
Sodium-dependent serotonin transporter (Rattus norvegicus, UniProt P31652), sequence (P31652 whole entry): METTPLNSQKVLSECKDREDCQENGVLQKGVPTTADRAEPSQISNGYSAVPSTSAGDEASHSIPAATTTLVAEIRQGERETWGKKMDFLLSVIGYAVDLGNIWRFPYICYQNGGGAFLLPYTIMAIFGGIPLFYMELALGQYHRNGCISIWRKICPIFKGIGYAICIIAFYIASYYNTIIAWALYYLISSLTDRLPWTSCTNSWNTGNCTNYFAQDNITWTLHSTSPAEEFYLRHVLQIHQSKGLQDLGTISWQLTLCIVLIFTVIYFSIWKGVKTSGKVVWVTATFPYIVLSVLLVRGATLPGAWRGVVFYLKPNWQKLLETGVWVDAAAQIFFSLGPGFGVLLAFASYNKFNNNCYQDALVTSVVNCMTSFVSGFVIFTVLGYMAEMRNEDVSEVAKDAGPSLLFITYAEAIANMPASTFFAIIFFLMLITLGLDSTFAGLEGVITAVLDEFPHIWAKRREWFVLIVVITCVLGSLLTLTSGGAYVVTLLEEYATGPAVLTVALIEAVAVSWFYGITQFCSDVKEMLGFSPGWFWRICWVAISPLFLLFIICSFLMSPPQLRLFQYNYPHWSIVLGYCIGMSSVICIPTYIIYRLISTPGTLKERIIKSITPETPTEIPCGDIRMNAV
T1 sequence (P14842 whole entry): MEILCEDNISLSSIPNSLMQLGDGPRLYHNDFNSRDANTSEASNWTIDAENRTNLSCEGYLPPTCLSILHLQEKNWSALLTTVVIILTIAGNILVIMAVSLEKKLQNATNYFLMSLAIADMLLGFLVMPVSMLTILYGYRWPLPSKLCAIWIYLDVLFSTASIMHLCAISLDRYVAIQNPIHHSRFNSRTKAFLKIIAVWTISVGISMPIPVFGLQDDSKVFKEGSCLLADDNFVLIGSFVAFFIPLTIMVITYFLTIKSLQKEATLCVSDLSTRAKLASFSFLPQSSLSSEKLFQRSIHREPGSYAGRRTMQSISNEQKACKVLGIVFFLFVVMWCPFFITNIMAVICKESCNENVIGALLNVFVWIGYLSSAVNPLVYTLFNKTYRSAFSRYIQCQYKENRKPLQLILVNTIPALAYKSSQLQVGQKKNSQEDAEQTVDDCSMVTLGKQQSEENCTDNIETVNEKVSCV
Sigma non-opioid intracellular receptor 1, sequence (Q60492 whole entry): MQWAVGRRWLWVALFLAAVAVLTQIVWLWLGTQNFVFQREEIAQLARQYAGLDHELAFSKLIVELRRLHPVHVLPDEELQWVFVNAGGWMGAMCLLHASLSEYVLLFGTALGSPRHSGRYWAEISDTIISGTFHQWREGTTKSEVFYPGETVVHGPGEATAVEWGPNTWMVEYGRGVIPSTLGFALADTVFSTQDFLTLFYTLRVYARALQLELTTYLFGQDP
Sodium-dependent dopamine transporter (Homo sapiens, UniProt Q01959), sequence (Q01959 whole entry): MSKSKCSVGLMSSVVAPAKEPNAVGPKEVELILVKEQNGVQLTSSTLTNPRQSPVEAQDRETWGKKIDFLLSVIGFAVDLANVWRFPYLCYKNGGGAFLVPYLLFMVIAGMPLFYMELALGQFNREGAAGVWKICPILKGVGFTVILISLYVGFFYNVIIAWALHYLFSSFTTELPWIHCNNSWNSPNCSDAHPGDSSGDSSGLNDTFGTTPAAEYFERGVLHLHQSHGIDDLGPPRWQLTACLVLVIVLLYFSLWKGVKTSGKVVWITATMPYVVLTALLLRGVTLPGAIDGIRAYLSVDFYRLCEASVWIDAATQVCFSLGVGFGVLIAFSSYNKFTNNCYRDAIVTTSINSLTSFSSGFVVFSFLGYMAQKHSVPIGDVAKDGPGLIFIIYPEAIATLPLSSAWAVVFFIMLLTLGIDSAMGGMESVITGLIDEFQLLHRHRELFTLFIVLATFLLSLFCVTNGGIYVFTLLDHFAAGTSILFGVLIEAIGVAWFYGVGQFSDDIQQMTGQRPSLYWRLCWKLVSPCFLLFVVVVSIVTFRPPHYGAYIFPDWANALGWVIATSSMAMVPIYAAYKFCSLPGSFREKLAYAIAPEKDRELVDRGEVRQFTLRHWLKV
Sodium-dependent serotonin transporter (Homo sapiens, UniProt P31645), sequence (P31645 whole entry): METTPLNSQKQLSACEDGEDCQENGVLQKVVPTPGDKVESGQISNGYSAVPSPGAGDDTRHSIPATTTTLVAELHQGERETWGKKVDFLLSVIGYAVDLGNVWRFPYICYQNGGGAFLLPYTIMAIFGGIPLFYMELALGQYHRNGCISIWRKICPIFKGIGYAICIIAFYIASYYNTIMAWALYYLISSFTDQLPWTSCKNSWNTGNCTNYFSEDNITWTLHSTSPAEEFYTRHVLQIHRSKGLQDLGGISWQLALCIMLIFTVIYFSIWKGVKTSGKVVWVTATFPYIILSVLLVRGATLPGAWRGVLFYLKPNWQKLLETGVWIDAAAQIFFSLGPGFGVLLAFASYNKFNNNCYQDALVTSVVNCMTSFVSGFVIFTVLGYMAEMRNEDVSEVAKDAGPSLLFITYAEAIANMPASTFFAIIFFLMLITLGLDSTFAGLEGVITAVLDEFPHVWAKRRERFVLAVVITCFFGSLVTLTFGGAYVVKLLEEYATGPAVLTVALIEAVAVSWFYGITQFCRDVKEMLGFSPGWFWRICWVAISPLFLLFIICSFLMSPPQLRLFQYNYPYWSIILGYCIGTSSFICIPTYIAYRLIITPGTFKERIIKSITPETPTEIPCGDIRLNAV
5-hydroxytryptamine receptor 2A (Homo sapiens, UniProt P28223), sequence (P28223 whole entry): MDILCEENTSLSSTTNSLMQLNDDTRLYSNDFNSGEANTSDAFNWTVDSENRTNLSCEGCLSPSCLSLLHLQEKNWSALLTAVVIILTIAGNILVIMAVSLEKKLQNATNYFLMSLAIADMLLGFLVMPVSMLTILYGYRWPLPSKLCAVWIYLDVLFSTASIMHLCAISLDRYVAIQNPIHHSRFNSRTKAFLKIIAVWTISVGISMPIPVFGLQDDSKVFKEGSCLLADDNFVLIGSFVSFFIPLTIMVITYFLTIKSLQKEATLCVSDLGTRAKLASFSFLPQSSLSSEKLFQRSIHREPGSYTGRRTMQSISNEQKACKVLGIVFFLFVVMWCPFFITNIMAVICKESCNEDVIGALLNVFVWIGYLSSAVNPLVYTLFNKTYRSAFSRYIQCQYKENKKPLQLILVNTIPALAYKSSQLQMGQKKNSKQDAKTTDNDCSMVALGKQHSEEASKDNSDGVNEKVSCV

## COc1cc(OC)c(OC)cc1CC(C)N (configuration not stated)
[1]
  pKi: 7.09
[2]
  pKi: 7.24

## CN[C@@H](C)Cc1ccc2c(c1)OCO2
[3]
  pKi: 4.80
[4]
  pEC50: 6.85
Rattus norvegicus [5]
  ED50: 0.48 mg/kg
[6]
  pEC50: 6.87
[7]
  pEC50: 7.13

## C[C@H](N)Cc1ccccc1 [DEXTROAMPHETAMINE]
Rattus norvegicus [8]
  ED50: 0.2 mg/kg
Rattus norvegicus [9]
  ED50: 0.62 mg/kg
[6]
  pEC50: 8.15
Rattus norvegicus [10]
  Activity: 20 - 80%
Rattus norvegicus [11]
  ED50: 0.23 mg/kg
Rattus norvegicus [12]
  Activity: 20 - 80%
Rattus norvegicus [13]
  ED50: 0.4 mg/kg
Rattus norvegicus [14]
  ED50: 0.28 mg/kg
Rattus norvegicus [15]
  ED50: 0.44 mg/kg
[16]
  pKi: 4.34

## CN[C@@H](C)Cc1ccc(OC)cc1
[4]
  pEC50: 6.00
Rattus norvegicus [5]
  ED50: 0.3 mg/kg
[6]
  pEC50: 6.83
[7]
  pEC50: 7.39

## COc1ccc(C[C@H](C)N)cc1
Rattus norvegicus [5]
  Activity: 20 - 80%
Rattus norvegicus [17]
  Activity: 20 - 80%

## CN[C@@H](C)[C@H](O)c1ccccc1 [EPHEDRINE]
Rattus norvegicus [18]
  ED50: 0.8 mg/kg
Rattus norvegicus [14]
  ED50: 13.1 mg/kg

## CNC(C)C(=O)c1ccc(C(F)(F)F)cc1 (configuration not stated)
[19]
  pEC50: 6.72
Homo sapiens
  Ratio EC50: 14
[20]
  pEC50: 5.57

## c1ccc(CCCCCN2CCCCC2)cc1
[21]
  pKi: 9.42

## c1ccc(CCCCCN2CCCC(c3ccccc3)C2)cc1 (configuration not stated)
[21]
  pKi: 9.85

## COc1cc(CC(C)N)c(OC)cc1I (configuration not stated)
[1]
  pKi: 9.15

## COc1ccc(C[C@@H](C)N)cc1OC
Rattus norvegicus [5]
  ED50: 3 mg/kg
Rattus norvegicus [17]; Rattus norvegicus
  ED50: 5.4 mg/kg

## CN[C@H](C)Cc1ccc2c(c1)OCO2
[3]
  pKi: 5.48
[4]
  pEC50: 5.43
[6]
  pEC50: 6.25
[7]
  pEC50: 6.47

## CC[C@@H](N)Cc1c[nH]c2ccccc12
[4]
  pEC50: 6.05
[6]
  pEC50: < 5.00
Rattus norvegicus [10]; [29]
  ED50: 1.3 mg/kg
Rattus norvegicus [22]
  Activity: 33%
Rattus norvegicus [12]; [29]
  ED50: 1.6 mg/kg
Rattus norvegicus [13]
  ED50: 7.8 mg/kg
Rattus norvegicus [23]
  ED50: 1.6 mg/kg
[7]
  pEC50: 7.17

## C=CCN1CC[C@]2(C)c3cc(O)ccc3C[C@H]1[C@H]2C
[16]
  pKi: 6.82

## CNC(C)C(=O)c1ccc(C)cc1 (configuration not stated) [MEPHEDRONE]
[19]
  pEC50: 6.93
Homo sapiens
  Ratio EC50: 2.5
[20]
  pEC50: 7.31

## CN[C@H](C)Cc1ccc(OC)cc1
[4]
  pEC50: 5.80
[6]
  pEC50: < 4.85
[7]
  pEC50: 6.87

## COc1ccc(OC)c(CC(C)N)c1 (configuration not stated)
[1]
  pKi: 6.57

## CC1CCN(CCCCCc2ccccc2)CC1
[21]
  pKi: 10.15

## CCCCCCN(C)CCc1ccccc1
[21]
  pKi: 7.32

## O=C1CC2(CCCC2)CC(=O)N1CCCCN1CCN(c2ncccn2)CC1 [BUSPIRONE]
Mus musculus
  ED50: 2.36 mg/kg

## C[C@H](N)Cc1ccc2c(c1)OCO2
[4]
  pEC50: 7.01
Rattus norvegicus [5]
  ED50: 0.7 mg/kg
[6]
  pEC50: 7.30
[7]
  pEC50: 7.00

## CC(N)Cc1c[nH]c2ccccc12 (configuration not stated)
Rattus norvegicus [24]
  ED50: 3.1 mg/kg
[25]
  pKi: 5.51

## C[C@H](Cc1ccccc1)NCCCCCc1ccccc1
[21]
  pKi: 9.30

## COc1cc(C[C@@H](C)N)c(OC)cc1I
Rattus norvegicus [26]
  ED50: 0.2 mg/kg
Rhesus monkey
  ED50: 0.04 mg/kg

## CCN(CC)[C@@H]1CCc2cccc(O)c2C1
[27]
  pKi: 8.02

## C[C@H](N)Cc1c[nH]c2ccccc12
Rattus norvegicus [24]
  ED50: 1.64 mg/kg
[25]
  pKi: 5.60

## COc1cc([C@@H](OC)[C@H](C)N)c(OC)cc1Br
[28]
  pKi: 9.10

## COc1cccc(C[C@H](C)N)c1 [(S)-M-METHOXYAMPHETAMINE]
Rattus norvegicus [5]
  Activity: 20 - 80%
Rattus norvegicus [17]
  Activity: <20%

## CN(C)[C@@H]1CCc2cccc(O)c2C1
[27]
  pKi: 7.12

— ChEMBL document CHEMBL4007451, “The 2014 Philip S. Portoghese Medicinal Chemistry Lectureship: The "Phenylalkylaminome" with a Focus on Selected Drugs of Abuse” (J Med Chem, 2017)
